Reference: patent US6267945A, “Farnesol-related calcium channel blockers” (NeuroMed Technologies, Inc., priority 1998, dated 2001)
Where two headings read alike, the source gives them in different places.

What was measured:
[1] = target: T1, N-type calcium channel (α1B + α2 + β1b) (Rattus norvegicus, UniProt Q02294); assay: Open-channel block of N-type calcium channels, whole cell patch clamp, holding potential -100 mV; type: cell-based; conditions: for inhibition at 10 µM: read-out: Open/Resting Block (determined at 10 μM); for normalized peak height: -100 mV to +20 mV
T1 construct: expressed in transfected cells; host or cells: HEK293 cells stably expressing, or HEK TSA 201 cells transiently transfected with, α1B + α2 + β1b
T1 sequence (Q02294 whole entry): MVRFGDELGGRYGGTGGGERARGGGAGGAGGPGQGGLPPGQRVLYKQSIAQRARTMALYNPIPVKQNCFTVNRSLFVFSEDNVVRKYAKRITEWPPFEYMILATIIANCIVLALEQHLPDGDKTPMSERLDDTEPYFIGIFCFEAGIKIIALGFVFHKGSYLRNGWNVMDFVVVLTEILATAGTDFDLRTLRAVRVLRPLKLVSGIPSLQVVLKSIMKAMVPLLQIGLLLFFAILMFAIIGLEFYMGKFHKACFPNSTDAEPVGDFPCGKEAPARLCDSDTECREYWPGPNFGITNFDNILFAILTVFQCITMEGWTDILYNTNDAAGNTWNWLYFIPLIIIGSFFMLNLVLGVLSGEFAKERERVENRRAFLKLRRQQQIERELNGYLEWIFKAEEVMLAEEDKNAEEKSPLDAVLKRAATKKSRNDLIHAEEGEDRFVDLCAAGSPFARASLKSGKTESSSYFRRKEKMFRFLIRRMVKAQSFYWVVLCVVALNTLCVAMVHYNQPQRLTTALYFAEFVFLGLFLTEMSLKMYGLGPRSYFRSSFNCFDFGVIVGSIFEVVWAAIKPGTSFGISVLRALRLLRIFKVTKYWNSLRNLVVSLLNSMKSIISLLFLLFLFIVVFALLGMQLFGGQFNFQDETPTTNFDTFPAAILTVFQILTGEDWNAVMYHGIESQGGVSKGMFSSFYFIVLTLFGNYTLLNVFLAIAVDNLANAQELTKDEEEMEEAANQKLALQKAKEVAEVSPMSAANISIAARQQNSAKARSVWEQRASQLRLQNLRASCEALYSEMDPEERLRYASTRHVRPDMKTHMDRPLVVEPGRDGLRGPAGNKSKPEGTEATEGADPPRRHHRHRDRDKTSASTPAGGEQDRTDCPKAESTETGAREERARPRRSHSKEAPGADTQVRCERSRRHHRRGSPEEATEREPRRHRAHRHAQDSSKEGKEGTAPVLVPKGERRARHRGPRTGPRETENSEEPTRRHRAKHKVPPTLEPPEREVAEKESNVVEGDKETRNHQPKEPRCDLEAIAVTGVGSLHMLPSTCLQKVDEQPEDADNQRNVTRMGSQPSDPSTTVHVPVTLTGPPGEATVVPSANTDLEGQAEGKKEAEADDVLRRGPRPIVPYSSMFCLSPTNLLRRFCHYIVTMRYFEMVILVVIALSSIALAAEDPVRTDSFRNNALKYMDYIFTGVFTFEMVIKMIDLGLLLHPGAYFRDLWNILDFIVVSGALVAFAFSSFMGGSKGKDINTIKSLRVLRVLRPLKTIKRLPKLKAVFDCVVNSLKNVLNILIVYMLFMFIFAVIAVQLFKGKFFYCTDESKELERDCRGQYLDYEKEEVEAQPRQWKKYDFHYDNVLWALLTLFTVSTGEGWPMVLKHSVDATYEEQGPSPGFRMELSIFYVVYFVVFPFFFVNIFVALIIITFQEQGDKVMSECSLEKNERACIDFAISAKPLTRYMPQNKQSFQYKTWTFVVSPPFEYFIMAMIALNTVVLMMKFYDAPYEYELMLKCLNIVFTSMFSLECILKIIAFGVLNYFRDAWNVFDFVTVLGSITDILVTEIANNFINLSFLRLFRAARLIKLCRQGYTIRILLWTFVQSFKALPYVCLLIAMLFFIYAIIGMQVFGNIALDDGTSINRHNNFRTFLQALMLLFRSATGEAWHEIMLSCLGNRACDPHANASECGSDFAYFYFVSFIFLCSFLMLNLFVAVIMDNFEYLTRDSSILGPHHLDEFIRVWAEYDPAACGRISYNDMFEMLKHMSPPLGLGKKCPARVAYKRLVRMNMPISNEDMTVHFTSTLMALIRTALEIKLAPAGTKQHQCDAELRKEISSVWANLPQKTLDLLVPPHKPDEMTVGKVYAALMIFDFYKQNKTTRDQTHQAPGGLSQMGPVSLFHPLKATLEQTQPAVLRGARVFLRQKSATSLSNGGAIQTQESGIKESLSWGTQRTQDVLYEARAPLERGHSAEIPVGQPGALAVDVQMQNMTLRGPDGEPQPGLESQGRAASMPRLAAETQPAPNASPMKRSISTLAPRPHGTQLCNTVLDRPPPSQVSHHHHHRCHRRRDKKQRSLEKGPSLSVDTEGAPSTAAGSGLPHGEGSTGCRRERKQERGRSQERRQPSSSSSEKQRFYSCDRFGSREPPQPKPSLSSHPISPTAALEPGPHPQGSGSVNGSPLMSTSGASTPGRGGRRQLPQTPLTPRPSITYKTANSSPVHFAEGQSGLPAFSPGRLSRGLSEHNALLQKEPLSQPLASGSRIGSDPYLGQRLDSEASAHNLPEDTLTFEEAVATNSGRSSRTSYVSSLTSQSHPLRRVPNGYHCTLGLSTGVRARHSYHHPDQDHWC
T1 sequence (P54290 25-944 partner limits assumed): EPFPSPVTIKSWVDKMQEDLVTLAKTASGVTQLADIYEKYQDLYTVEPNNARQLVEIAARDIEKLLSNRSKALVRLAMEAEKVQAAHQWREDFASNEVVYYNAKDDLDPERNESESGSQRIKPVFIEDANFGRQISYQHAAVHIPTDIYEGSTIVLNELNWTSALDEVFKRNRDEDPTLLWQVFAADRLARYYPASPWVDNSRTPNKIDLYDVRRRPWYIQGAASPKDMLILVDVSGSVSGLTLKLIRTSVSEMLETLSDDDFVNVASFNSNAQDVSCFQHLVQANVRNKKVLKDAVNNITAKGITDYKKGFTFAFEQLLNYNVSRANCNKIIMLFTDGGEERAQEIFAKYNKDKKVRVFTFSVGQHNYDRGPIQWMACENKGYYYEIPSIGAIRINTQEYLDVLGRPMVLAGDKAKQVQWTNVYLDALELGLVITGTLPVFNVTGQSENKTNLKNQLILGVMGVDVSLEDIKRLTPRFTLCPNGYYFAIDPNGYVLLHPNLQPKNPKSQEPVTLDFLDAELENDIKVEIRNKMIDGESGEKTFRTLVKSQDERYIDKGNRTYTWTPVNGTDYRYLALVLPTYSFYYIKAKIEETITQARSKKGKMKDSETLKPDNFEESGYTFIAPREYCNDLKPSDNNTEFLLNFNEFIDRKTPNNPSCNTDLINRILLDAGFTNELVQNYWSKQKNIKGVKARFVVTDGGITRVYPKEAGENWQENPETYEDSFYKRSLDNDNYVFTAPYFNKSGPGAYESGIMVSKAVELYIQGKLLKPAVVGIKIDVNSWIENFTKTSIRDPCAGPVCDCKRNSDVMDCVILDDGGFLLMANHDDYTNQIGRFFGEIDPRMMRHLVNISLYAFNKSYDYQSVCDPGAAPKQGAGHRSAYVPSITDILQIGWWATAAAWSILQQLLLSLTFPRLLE
T1 sequence (P54290 945-1091 partner limits assumed): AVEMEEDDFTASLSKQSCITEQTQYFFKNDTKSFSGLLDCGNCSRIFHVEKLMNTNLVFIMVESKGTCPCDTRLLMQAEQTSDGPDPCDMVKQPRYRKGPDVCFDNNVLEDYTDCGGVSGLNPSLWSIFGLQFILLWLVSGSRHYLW
T1 sequence (P54283 whole entry partner): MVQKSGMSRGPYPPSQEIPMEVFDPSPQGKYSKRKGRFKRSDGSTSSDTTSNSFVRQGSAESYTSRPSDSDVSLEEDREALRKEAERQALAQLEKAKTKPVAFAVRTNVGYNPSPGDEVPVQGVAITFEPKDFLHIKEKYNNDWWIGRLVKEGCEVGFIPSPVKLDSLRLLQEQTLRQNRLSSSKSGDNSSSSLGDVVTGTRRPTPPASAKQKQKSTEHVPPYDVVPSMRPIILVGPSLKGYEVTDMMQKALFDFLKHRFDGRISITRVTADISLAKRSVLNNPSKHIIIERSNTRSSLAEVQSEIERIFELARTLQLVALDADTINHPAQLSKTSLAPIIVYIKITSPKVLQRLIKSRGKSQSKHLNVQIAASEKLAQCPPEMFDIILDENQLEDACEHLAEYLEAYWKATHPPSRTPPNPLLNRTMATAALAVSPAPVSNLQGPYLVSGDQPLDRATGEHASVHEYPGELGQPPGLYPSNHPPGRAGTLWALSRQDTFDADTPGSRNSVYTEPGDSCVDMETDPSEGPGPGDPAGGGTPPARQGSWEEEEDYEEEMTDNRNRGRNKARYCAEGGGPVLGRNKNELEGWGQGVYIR
From the text: (§1) There are two distinguishable types of calcium channel inhibition. […] A second type of block is referred to herein as "inactivation inhibition." When maintained at less negative resting potentials, such as the physiologically important potential of -70 mV, a certain percentage of the receptor channels may undergo conformational change, rendering them incapable of being activated--i.e., opened--by the abrupt depolarization. Thus, the peak current due to calcium ion flow will be diminished not because the open channel is blocked, but because some of the channels are unavailable for opening (inactivated). "Inactivation" type inhibitors increase the percentage of receptors that are inactivated.
(§2) As described above, a more definitive assay can be used to distinguish inhibitors of calcium flow which operate as open channel blockers, as opposed to those that operate by promoting inactivation of the channel. The methods to distinguish these types of inhibition are more particularly described in the examples below. In general, open-channel blockers are assessed by measuring the level of peak current when deploarization is imposed on a background resting potential of about -100 mV in the presence and absence of the candidate compound. Successful open-channel blockers will reduce the peak current observed and accelerate the decay of this current. Compounds that are inactivated channel blockers are determined by their ability to shift the voltage dependence of inactivation towards more negative potentials. This is also reflected in their ability to reduce peak currents at more depolarized holding potentials(e.g., -70 mV).
(§3) Human embryonic kidney TSA 201 cells were grown in standard DMEM medium, supplemented with 10% fetal bovine serum and 0.4 mg/ml neomycin. The cells were grown to 80% confluency, split with trypsin EDTA and plated on glass coverslips at 10% confluency 12 hours prior to transfection. Immediately prior to transfection, the medium was replaced and the cells were transiently transfected with cDNAs encoding calcium channel α1B, β1b and α2 subunits (at a 1:1:1 molar ratio) using a standard calcium phosphate protocol. After 12 hours, the medium was replaced with fresh DMEM and the cells were allowed to recover for 12 hours. Subsequently the cells were incubated at 28° C. in 5% CO2 for 1-2 days prior to recording. Human embryonic kidney cells stably expressing N-type α1B +α2 +β1b were maintained and plated for electrophysiological recordings as described by Zamponi, G. W. et al., Nature (1997) 385:442-446.
Immediately prior to recording, individual cover slips were transferred to a 3 cm culture dish containing an external recording solution. The external recording solution was 20 mM BaCl2, 1 mM MgCl2, 10 mM HEPES, 40 mM TEACl, 10 mM glucose, 65 mM CsCl (pH 7.2) or 5 mM BaCl2, 1 mM MgCl2, 10 mM HEPES, 40 mM TEACl, 10 mM glucose, 87.5 mM CsCl (pH 7.2). […] The internal pipette solution is 105 mM CsCl, 25 mM TEACl, 1 mM CaCl2, 11 mM EGTA, 10 mM HEPES (pH 7.2). Whole cell patch clamp experiments were performed using an Axopatch 200B amplifier (Axon Instruments, Burlingame, Calif.) linked to an IBM compatible personal computer equipped with pCLAMP 6.0 software. Currents were typically elicited from a holding potential of -100 mV to various test potentials. The compounds to be tested were prepared as stock solutions in ethanol and diluted into the recording solution at the appropriate final concentrations, and perfused directly onto the cells using a gravity driven microperfusion system. At the applicable concentrations, ethanol by itself had no effect on calcium channel activity. Data were filtered at 1 kHz and recorded directly on the hard drive of a personal computer. The data were analyzed using ClampFit (Axon Instruments). Curve fitting was carried out in Sigmaplot 4.0 (Jandel Scientific). Steady state inactivation curves were fitted with a Boltzman equation, […]

[2] = target: T1, N-type calcium channel (α1B + α2 + β1b); assay: Inactivation of N-type calcium channels (steady state inactivation, shift in V0.5), whole cell patch clamp; type: cell-based
From the text: as §1, §2, §3
Immediately prior to recording, individual cover slips were transferred to a 3 cm culture dish containing an external recording solution. The external recording solution was 20 mM BaCl2, 1 mM MgCl2, 10 mM HEPES, 40 mM TEACl, 10 mM glucose, 65 mM CsCl (pH 7.2) or 5 mM BaCl2, 1 mM MgCl2, 10 mM HEPES, 40 mM TEACl, 10 mM glucose, 87.5 mM CsCl (pH 7.2). […] The internal pipette solution is 105 mM CsCl, 25 mM TEACl, 1 mM CaCl2, 11 mM EGTA, 10 mM HEPES (pH 7.2). Whole cell patch clamp experiments were performed using an Axopatch 200B amplifier (Axon Instruments, Burlingame, Calif.) linked to an IBM compatible personal computer equipped with pCLAMP 6.0 software. Currents were typically elicited from a holding potential of -100 mV to various test potentials. The compounds to be tested were prepared as stock solutions in ethanol and diluted into the recording solution at the appropriate final concentrations, and perfused directly onto the cells using a gravity driven microperfusion system. At the applicable concentrations, ethanol by itself had no effect on calcium channel activity. Data were filtered at 1 kHz and recorded directly on the hard drive of a personal computer. The data were analyzed using ClampFit (Axon Instruments). Curve fitting was carried out in Sigmaplot 4.0 (Jandel Scientific). Steady state inactivation curves were fitted with a Boltzman equation,
Ipeak(normalized) =1/(1+exp((V-Vh)Z/25.6)) […]

[3] = tested on: L-type receptors; conditions: micromolar range; cited from earlier work
[4] = tested on: P/Q type calcium channel (α1A); assay: Open-channel block of P/Q-type channels, resting potential -100 mV; type: cell-based; conditions: 25 μM farnesol
Description: as §3
(§4) For some experiments, cells were prepared wherein the α1B unit was replaced by α1A (P/Q type) α1C (type L) or α1E (undefined). α1B represents N-type.
(§5) Immediately prior to recording, individual cover slips were transferred to a 3 cm culture dish containing an external recording solution. […] Data were filtered at 1 kHz and recorded directly on the hard drive of a personal computer. The data were analyzed using ClampFit (Axon Instruments). […]

[5] = tested on: P/Q type calcium channel (α1A); assay: Inactivation effect on P/Q-type channels, resting potential -70 mV; type: cell-based; conditions: 250 nM farnesol
Description: as §3, §4, §5

[6] = tested on: L-type calcium channel (α1C); assay: Inactivation effect on L-type channels, resting potential -70 mV; type: cell-based; conditions: 250 nM farnesol
Description: as §3, §4, §5

[7] = tested on: α1E calcium channel; assay: Open-channel block of α1E channels, resting potential -100 mV; type: cell-based; conditions: 25 μM farnesol
Description: as §3, §4, §5

[8] = tested on: L-type calcium channel (α1C); assay: Open-channel block of L-type channels, resting potential -100 mV; type: cell-based; conditions: 25 μM farnesol
Description: as §3, §4, §5

[9] = tested on: α1E calcium channel; assay: Inactivation effect on α1E channels, resting potential -70 mV; type: cell-based; conditions: 250 nM farnesol
Description: as §3, §4, §5

[10] = corrected for control inactivation rate, linear fit

CC(=O)OCC=C(C)CCC=C(C)CCC=C(C)C [farnesyl acetate]
inhibition at 10 µM [1]: 90 to 100%
Inactivated Block (shift in V0.5) [2]: ~ 20 mV

CC(C)CCCC(C)CCCC(C)CCCC(C)C (stereo not drawn)
nonspecific open-channel blocking activity (summary in words) [1]: relatively lacking
Open/Resting Block (determined at 10 μM) [1]: < 10%
Inactivated Block (shift in V0.5) [2]: ~ 10 mV
inactivation-type inhibition specific to the N-type receptor (summary in words) [2]: able to promote substantial inactivation-type inhibition

COC(=O)C=C(C)CCC=C(C)CCC1OC1(C)C (stereo not drawn) [juvenile hormone III]
nonspecific open-channel blocking activity (summary in words) [1]: relatively lacking
Open/Resting Block (determined at 10 μM) [1]: Not active
Inactivated Block (shift in V0.5) [2]: ~ 10 mV
inactivation-type inhibition specific to the N-type receptor (summary in words) [2]: able to promote substantial inactivation-type inhibition

CC(C)=CCCC(C)=CCCC(C)=CCBr [farnesyl bromide]
nonspecific open-channel blocking activity (summary in words) [1]: relatively lacking
inhibition at 10 µM [1]: 20 to 30%
Inactivated Block (shift in V0.5) [2]: ~ 20 mV
inactivation-type inhibition specific to the N-type receptor (summary in words) [2]: able to promote substantial inactivation-type inhibition

CC(C)=CCCC(C)=CCCC(C)=CCO [farnesol]
calcium-channel blocking, open channel blockage, channel preference [3]: preference for inhibition of L-type receptors
open channel blocking effect on current amplitudes [4]: diminished peak heights
peak current at -70 mV resting potential normalized to -100 mV [5]: Only the N-type channels show substantially diminished values
peak current at -70 mV resting potential normalized to -100 mV [6]: Only the N-type channels show substantially diminished values
open channel blocking effect on current amplitudes [7]: diminished peak heights
channel type preference of open channel block [8]: preferentially inhibited
open channel blocking effect on current amplitudes [8]: diminished peak heights
peak current at -70 mV resting potential normalized to -100 mV [9]: Only the N-type channels show substantially diminished values
normalized peak height ([1]; 5 μM farnesol): diminished
time to decay of current to the resting level ([1]; 5 μM or 25 μM farnesol): accelerated time to decay to the resting level
position of peak amplitude with respect to depolarization voltage (current/voltage relationship) ([1]; 10 μM farnesol): no dependence
normalized peak height ([1]; 25 μM farnesol): further dramatically diminished
open channel blocking effect on current amplitudes ([1]; 25 μM farnesol, resting potential -100 mV): diminished peak heights
peak currents upon removal of farnesol (reversibility) ([1]; after 5 μM and 25 μM farnesol): regenerated
intercept of inverse time constant for current decay versus farnesol concentration [1, 10]: 7.6
slope of inverse time constant for current decay versus farnesol concentration [1, 10]: 4.8
inhibition at 10 µM [1]: 60%
Inactivated Block (shift in V0.5) [2]: 10-25 mV
V0.5 ([2]; 100 nM farnesol): -70 mV
time course of development of current amplitude diminution ([2]; 100 nM farnesol, resting potential -70 mV): slower than that obtained at a resting potential of -100 mV
recovery from block ([2]; 100 nM farnesol, resting potential -70 mV, compared with open-channel blockage): much slower
peak current at -70 mV resting potential normalized to -100 mV ([2]; 250 nM farnesol): substantially diminished
reversibility of effect ([2]; 250 nM farnesol, holding -70 mV to test +10 mV): does not appear to be completely reversible
Z slope factor (Boltzman fit) ([2]; 25 μM farnesol): 3.8
shift in V0.5 ([2]; 25 μM farnesol): about 20 mV
V0.5 (resting potential that diminishes peak currents to 1/2) ([2]; 25 μM farnesol present, mean values): -70 mV
Vh (Boltzman fit of steady state inactivation) ([2]; 25 μM farnesol, test potential +20 mV): -68.7 mV
Vh (Boltzman fit of steady state inactivation) ([2]; Wash, after 25 μM farnesol): -56.5 mV
Z slope factor (Boltzman fit) ([2]; Wash, after 25 μM farnesol): 4.0
activity at 25 µM ([2]; read-out: peak current value (normalized to -100 mV resting potential)): 50%
activity at 25 µM ([2]; read-out: peak value as % of base value (normalized to -100 mV resting potential)): 80%

CCCCCCCCCCCCN [dodecylamine]
inhibition at 10 µM [1]: 90 to 100%
Inactivated Block (shift in V0.5) [2]: ~ 10 mV

CCCCCCCCCCCC [dodecane]
nonspecific open-channel blocking activity (summary in words) [1]: relatively lacking
inhibition at 10 µM [1]: 10 to 20%
Inactivated Block (shift in V0.5) [2]: ~ 10 mV
inactivation-type inhibition specific to the N-type receptor (summary in words) [2]: able to promote substantial inactivation-type inhibition

CCCCCCCCCCN [decylamine]
inhibition at 10 µM [1]: > 80%
Inactivated Block (shift in V0.5) [2]: ~ 10 mV

CC(C)=CCCC(C)=CCCC(C)=CCOP(=O)(O)OP(=O)(O)O [farnesyl pyrophosphate]
Open/Resting Block (determined at 10 μM) [1]: Not active
